In patent US20100119599A1 (ARCHER PHARMACEUTICALS, INC., priority 2006, published 2010):
Read-outs that look alike come from different tables or passages of the source.

How the values were obtained:
Aβ1-42 = assay: Measurement of Aβ1-42 in culture medium of 7W WT APP751 CHO cells by ELISA; assay type: cell-based, Chinese hamster; details: for Aβ1-42 (% of control): CHO cells that overexpress APP751, zero = below the detection limit of the assay; for activity at 5 µM: Cricetulus griseus, 5 μM test compound, CHO cells stably transfected with human APP751, culture medium, ELISA, control DMSO;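 on Aβ1-42 (% of control): 5 µM test compound but RI-coded compounds at 10 µM for 24 hours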
Aβ1-40 = assay: Measurement of Aβ1-40 in culture medium of 7W WT APP751 CHO cells by ELISA; assay type: cell-based, Chinese hamster; details: for Aβ1-40 (% of control): CHO cells that overexpress APP751, zero = below the detection limit of the assay; for activity at 5 µM: Cricetulus griseus, 5 μM test compound, CHO cells stably transfected with human APP751, culture medium, ELISA, control DMSO;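 on all read-outs here: 5 µM test compound but RI-coded compounds at 10 µM for 24 hours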
[1] = Table 1, 0 = no detectable amount, read-out: Aβ1-42 (% of control)
[2] = Table 1, 0 = no detectable amount

Row | SMILES | activity at 5 µM (Aβ1-42; [1]) [%] | activity at 5 µM (Aβ1-40; [2]) [%] | other results
1 | COC(=O)C1=CN(CC2CCCO2)C=C(C(=O)OC)C1c1cccc(Br)c1 (centres unmarked) [ST051569, methyl 4-(3-bromophenyl)-5-(methoxycarbonyl)-1-(oxolan-2-ylmethyl)-1,4-dihydropyridine-3-carboxylate] | – | – | Aβ1-42 (% of control) (Aβ1-42): 72.77 % of control; Aβ1-40 (% of control) (Aβ1-40): 49.02 % of control
2 | COc1ccc(OC)c(C2C(C(=O)OC3CCCCC3)=C(C)NC3=C2C(=O)CCC3)c1 (centres unmarked) [ST013270, cyclohexyl 4-(2,5-dimethoxyphenyl)-2-methyl-5-oxo-1,4,6,7,8-pentahydroquinoline-3-carboxylate] | 35 | 19.7 | –
3 | COC(=O)C1=CN(CC2CCCO2)C=C(C(=O)OC)C1c1cccc(OC)c1OC (centres unmarked) [ST051459, methyl 4-(2,3-dimethoxyphenyl)-5-(methoxycarbonyl)-1-(oxolan-2-ylmethyl)-1,4-dihydropyridine-3-carboxylate] | – | – | Aβ1-42 (% of control) (Aβ1-42): 85.96 % of control; Aβ1-40 (% of control) (Aβ1-40): 70.09 % of control
4 | CCOC(=O)C1=C(N)n2c(s/c(=C\c3ccccc3OC)c2=O)=C(S(=O)(=O)c2ccccc2)C1c1ccccc1OC (centres unmarked) [ST011325, ethyl 5-amino-7-(2-methoxyphenyl)-2-[(2-methoxyphenyl)methylene[-3-oxo-8-(phenylsulfonyl)-4,7-dihydro-1,3-thiazolidino[3,2-a]pyridine-6-carboxylate] | – | – | Aβ1-42 (% of control) (Aβ1-42): 99 % of control; Aβ1-40 (% of control) (Aβ1-40): 62.35 % of control
5 | CC1=C(C(=O)Nc2ccccc2)C(c2ccsc2)C(C#N)=C(SCC(=O)Nc2ccc(C(C)C)cc2)N1 (centres unmarked) [RI_46] | – | – | Aβ1-42 (% of control) (Aβ1-42): 70.2 % of control; Aβ1-40 (% of control) (Aβ1-40): 74.4 % of control
6 | CCCOC(=O)C1=C(C)NC2=C(C(=O)CCC2)C1c1cccc(O)c1 (centres unmarked) [ST014959, propyl 4-(3-hydroxyphenyl)-2-methyl-5-oxo-1,4,6,7,8-pentahydroquinoline-3-carboxylate] | 70.2 | 64 | –
7 | CC1=C(C(=O)OCCOc2ccccc2)C(c2cccc(O)c2)C2=C(CC(c3ccccc3)CC2=O)N1 (centres unmarked) [ST017315, 2-phenoxyethyl 4-(3-hydroxyphenyl)-2-methyl-5-oxo-7-phenyl-1,4,6,7,8-pentahydroquinoline-3-carboxylate] | 53.9 | 43.8 | –
8 | CCOc1ccc(NC(=O)CSC2=C(C#N)C(c3ccco3)C(C(=O)Nc3ccccc3C)=C(C)N2)cc1 (centres unmarked) [ST051158, 2-{3-cyano-4-(2-furyl)-6-methyl-5-[N-(2-methylphenyl)carbamoyl](2-1,4-dihydropyridylthio)}-N-(4-ethoxyphenyl)acetamide] | – | – | Aβ1-42 (% of control) (Aβ1-42): 15.87 % of control; Aβ1-40 (% of control) (Aβ1-40): 17.68 % of control
9 | COC(=O)C1=C(C)NC2=C(C(=O)CC(c3ccc(OC)cc3)C2)C1c1ccc(C)cc1 (centres unmarked) [ST013332, methyl 7-(4-methoxyphenyl)-2-methyl-4-(4-methylphenyl)-5-oxo-1,4,6,7,8-pentahydroquinoline-3-carboxylate] | 68 | 45.1 | –
10 | CC1=C(C(=O)OC(C)C)C(c2cccnc2)C2=C(CCCC2=O)N1 (centres unmarked) [ST013077, methylethyl 2-methyl-5-oxo-4-(3-pyridyl)-1,4,6,7,8-pentahydroquinoline-3-carboxylate] | 97.8 | 27.4 | –
11 | COC(=O)C1=C(C)NC2=C(C(=O)CC(c3ccccc3)C2)C1c1ccc(O)c(OC)c1 (centres unmarked) [ST013115, methyl 4-(4-hydroxy-3-methoxyphenyl)-2-methyl-5-oxo-7-phenyl-1,4,6,7,8-pentahydroquinoline-3-carboxylate] | 65.7 | 94.7 | –
12 | COCCOC(=O)C1=C(C)NC2=C(C(=O)CCC2)C1c1cc(Br)c(O)c(OC)c1 (centres unmarked) [ST013357, 2-methoxyethyl 4-(3-bromo-4-hydroxy-5-methoxyphenyl)-2-methyl-5-oxo-1,4,6,7,8-pentahydroquinoline-3-carboxylate] | 95.2 | 62.4 | –
13 | CCN(CC)c1ccc(C2C(C(=O)OCCOC)=C(C)NC3=C2C(=O)CCC3)cc1 (centres unmarked) [ST013256, 2-methoxyethyl 4-[4-(diethylamino)phenyl]-2-methyl-5-oxo-1,4,6,7,8-pentahydroquinoline-3-carboxylate] | 92.8 | 60.2 | –
14 | CCOC(=O)C1=C(C)NC2=C(C(=O)CC(c3ccccc3)C2)C1c1ccccn1 (centres unmarked) [ST017251, ethyl 2-methyl-5-oxo-7-phenyl-4-(2-pyridyl)-1,4,6,7,8-pentahydroquinoline-3-carboxylate] | 34.3 | 90.4 | –
15 | CCOC(=O)C1=C(C)NC2=C(C(=O)CC(c3ccc(OC)cc3)C2)C1c1ccccc1F (centres unmarked) [ST015256, ethyl 4-(2-fluorophenyl)-7-(4-methoxyphenyl)-2-methyl-5-oxo-1,4,6,7,8-pentahydroquinoline-3-carboxylate] | 75.8 | 69.8 | –
16 | CCOC(=O)C1=C(C)NC2=C(C(=O)CCC2)C1c1ccc(Br)cc1 (centres unmarked) [ST211289, ethyl 4-(4-bromophenyl)-2-methyl-5-oxo-1,4,6,7,8-pentahydroquinoline-3-carboxylate] | 63.6 | 89.1 | –

Row | SMILES | activity at 5 µM (Aβ1-42; [1]) [%] | activity at 5 µM (Aβ1-40; [2]) [%] | other results
17 | CCCOC(=O)C1=C(C)NC2=C(C(=O)CC(C)(C)C2)C1c1ccccc1 (centres unmarked) [ST017262, propyl 2,7,7-trimethyl-5-oxo-4-phenyl-1,4,6,7,8-pentahydroquinoline-3-carboxylate] | 86 | 60.1 | –
18 | CCCOCCOC(=O)C1=C(C)NC2=C(C(=O)CC(C)(C)C2)C1c1ccc(Cl)c(Cl)c1 (centres unmarked) [ST052446, 2-propoxyethyl 4-(3,4-dichlorophenyl)-2,7,7-trimethyl-5-oxo-1,4,6,7,8-pentahydroquinoline-3-carboxylate] | 45.2 | 58.1 | –
19 | COC(=O)C1=C(C)NC2=C(C(=O)CC(C)(C)C2)C1c1cccc(OCc2ccccc2)c1 (centres unmarked) [ST052360, methyl 2,7,7-trimethyl-5-oxo-4-[3-(phenylmethoxy)phenyl]-1,4,6,7,8-pentahydroquinoline-3-carboxylate] | 61.6 | 55.7 | –
20 | CC1=C(C(=O)OC(C)C)C(c2cccc(Cl)c2Cl)C2=C(CC(c3ccccc3)CC2=O)N1 (centres unmarked) [ST013439, methylethyl 4-(2,3-dichlorophenyl)-2-methyl-5-oxo-7-phenyl-1,4,6,7,8-pentahydroquinoline-3-carboxylate] | 80.3 | 19.7 | –
21 | CCOC(=O)C1=C(C)NC(C)=C(C(=O)OCC)C1C(=O)O [ST007544, 3,5-bis(ethoxycarbonyl)-2,6-dimethyl-1,4-dihydropyridine-4-carboxylic acid] | – | – | activity at 5 µM (Aβ1-42; Table 3, read-out: Aβ-42 (% of control)): 80.1%; activity at 5 µM (Aβ1-40; Table 3): 78.7%
22 | CC1=C(C(=O)OC2CCCC2)C(c2ccc(Cl)cc2)C2=C(CC(C)(C)CC2=O)N1 (centres unmarked) [ST013081, cyclopentyl 4-(4-chlorophenyl)-2,7,7-trimethyl-5-oxo-1,4,6,7,8-pentahydroquinoline-3-carboxylate] | 0.188 | 0 | –
23 | CC1=C(C(=O)OC2CCCC2)C(c2ccc(C)s2)C2=C(CCCC2=O)N1 (centres unmarked) [ST052262, cyclopentyl 2-methyl-4-(5-methyl(2-thienyl))-5-oxo-1,4,6,7,8-pentahydroquinoline-3-carboxylate] | 19.7 | 13.2 | –
24 | CC1=C(C(=O)OC2CCCC2)C(c2cccs2)C2=C(CCCC2=O)N1 (centres unmarked) [ST017171, cyclopentyl 2-methyl-5-oxo-4-(2-thienyl)-1,4,6,7,8-pentahydroquinoline-3-carboxylate] | 63.4 | 62.5 | –
25 | CCCCCOC(=O)C1=C(C)NC2=C(C(=O)CC(C)(C)C2)C1c1ccc(Cl)cc1 (centres unmarked) [ST013054, pentyl 4-(4-chlorophenyl)-2,7,7-trimethyl-5-oxo-1,4,6,7,8-pentahydroquinoline-3-carboxylate] | 8.36 | 0 | –
26 | CC1=C(C(=O)Nc2ccccc2)C(c2cccs2)C(C#N)=C(SCC(=O)Nc2ccc(Cl)cc2)N1 (centres unmarked) [RI_74] | – | – | Aβ1-42 (% of control) (Aβ1-42): 41.6 % of control; Aβ1-40 (% of control) (Aβ1-40): 31.4 % of control
27 | N#CC1=C(N)Nc2c(c(=O)oc3ccccc23)C1c1ccc(Cl)cc1 (centres unmarked) [ST014144, 2-amino-4-(4-chlorophenyl)-5-oxo-1,4-dihydrochromeno[4,3-b]pyridine-3-carbonitrile] | – | – | Aβ1-42 (% of control) (Aβ1-42): 66.02 % of control; Aβ1-40 (% of control) (Aβ1-40): 66.08 % of control
28 | COc1cc(C2C(C(=O)OC3CCCCC3)=C(C)NC3=C2C(=O)CC(c2ccccc2)C3)cc(Cl)c1O (centres unmarked) [ST017050, cyclohexyl 4-(3-chloro-4-hydroxy-5-methoxyphenyl)-2-methyl-5-oxo-7-phenyl-1,4,6,7,8-pentahydroquinoline-3-carboxylate] | 22.2 | 39.6 | –
29 | COC(=O)C1=CN(Cc2ccc3c(c2)OCO3)C=C(C(=O)OC)C1c1ccc(OC)c(OC)c1 [ST038114, methyl 1-(2H-benzo[3,4-d]1,3-dioxolen-5-ylmethyl)-4-(3,4-dimethoxyphenyl)-5-(methoxycarbonyl)-1,4-dihydropyridine-3-carboxylate] | – | – | Aβ1-42 (% of control) (Aβ1-42): 95.92 % of control; Aβ1-40 (% of control) (Aβ1-40): 48 % of control
30 | CCc1ccc(C2C(C(=O)OC(C)CC)=C(C)NC3=C2C(=O)CC(c2ccc(OC)cc2)C3)cc1 (centres unmarked) [ST017092, methylpropyl 4-(4-ethylphenyl)-7-(4-methoxyphenyl)-2-methyl-5-oxo-1,4,6,7,8-pentahydroquinoline-3-carboxylate] | 30.9 | 41.3 | –
31 | N#CC1=C(N)N(Cc2ccccc2)C2=C(COC/C2=C/c2cccnc2)C1c1cccnc1 (centres unmarked) [ST014245, 2-amino-1-benzyl-4-(3-pyridyl)-8-(3-pyridylmethylene)-1,4,7-trihydro-5H-pyrano[4,3-b]pyridine-3-carbonitrile] | – | – | Aβ1-42 (% of control) (Aβ1-42): 53.59 % of control; Aβ1-40 (% of control) (Aβ1-40): 75.44 % of control
